For 15 compounds, IC50 results are on record in patent publication US20230144211A1, “ANTIFOLATE LINKER-DRUGS AND ANTIBODY-DRUG CONJUGATES” (Byondis B.V., priority 2020, published 2023).

Holding throughout (experiment): In vitro cell viability assay (CellTiter-Glo, 6 days)
Holding throughout (format): cell-based, human

The test system of experiment [1] is Jurkat NucLight Red cells. The conditions noted are these: free antifolate drugs. As for the experimental part: (§1) FaDu, BxPC-3, HeLa, MV4-11, and RAJI cell lines were obtained from Deutsche Sammlung von Mikroorganismen und Zellkulturen (Leipzig, Germany). Jurkat NucLight Red cells were obtained from Essen BioScience Inc. (Ann Arbor, Mich., USA). SK-BR-3 and SK-OV-3 cells were cultured in McCoys 5A medium (Lonza; Walkersville, Md., USA) supplemented with 10% v/w Fetal Bovine Serum (FBS), Heat-inactivated (HI) (Gibco-Life Technologies; Carlsbad, Calif.) and 80 U/mL Pen/Strep (Gibco-Life Technologies), at 37° C. in a humidified incubator under 5% CO2 atmosphere. SW-620 cells were similarly maintained in RPMI 1640 medium (Lonza), containing 10% v/w FBS HI and 80 U/mL Pen/Strep. A-549 cells were similarly maintained in F-12K Nutrient Mixture (1×) (Gibco-Life Technologies) media supplemented with 80 U/mL Pen/Strep and 5% v/w FBS, which was Qualified (Q) (Gibco-Life Technologies). BT-474 and AU-565 cells were similarly maintained in RPMI 1640 medium (Lonza), containing 10% v/w FBS, which was Qualified (Q) (Gibco-Life Technologies), and 80 U/mL Pen/Strep. […] Jurkat NucLight Red cells were similarly maintained in RPMI 1640 medium (Lonza), containing 10% v/w FBS HI, 80 U/mL Pen/Strep and 0.5 μg/mL Puromycin (Gibco-Life Technologies). FaDu cells were cultured in EMEM medium (Lonza) supplemented with 10% v/w FBS HI (Gibco-Life Technologies), 1× GlutaMAX (Gibco-Life Technologies), and 80 U/mL Pen/Strep (Gibco-Life Technologies), at 37° C. in a humidified incubator under 5% CO2 atmosphere.
(§2) After an overnight incubation, 10 serial log 10 dilutions of the free drugs were made in DMSO (Sigma-Aldrich). These free drug dose-response curves were 10-times further diluted in complete growth medium. For the ADCs according to the invention 10 serial log 10 dilutions were made in complete growth medium. 10 μL of a composition comprising a free drug or an ADC according to the invention was added to the assay plate (final DMSO content for free drugs was 1%). […] Cell viability was assessed after 6 days using a luminescent assay kit (CellTiter-Glo™ (CTG), Promega Corporation) according to the manufacturer's instructions. Percentage cell survival was calculated by dividing the measured luminescence for each free drug or ADC according to the concentration with the average mean of untreated cells (1% or 0.1% DMSO control (for free drugs) or 100% complete growth medium (for ADCs)) multiplied by 100.
(§3) Curves were fitted by non-linear regression using the sigmoidal dose-response equation with variable slope (four parameters) using curve-fitting software (GraphPad Prism, version 9.4.0 for Windows, GraphPad, San Diego, Calif. or Electronic Laboratory Notebook (ELN) add-in BioAssay, version 19.1.0.0218, Perkin Elmer, Waltham, Mass.). Relative IC50 values were calculated as the concentration that gives a response halfway between bottom and top of the curve, when using a 4-parameter logistic fit. Data were reported as mean IC50 value of at least one experiment performed in duplicate.

The next experiment concerns AU-565 cells. As for the experimental part: as §1
as §2, with “Cell viability was assessed after 6 days using a luminescent assay kit (CellTiter-Glo™ (CTG), Promega Corporation) according to the manufacturer's instructions.” left out
as §3

Another experiment relates to SK-BR-3 cells. As for the experimental part: as §1
as §2, with “Cell viability was assessed after 6 days using a luminescent assay kit (CellTiter-Glo™ (CTG), Promega Corporation) according to the manufacturer's instructions.” left out
as §3

Setting [2] is: Homo sapiens, AU565, free antifolate drugs, Table 1b.
[3] abbreviates: Homo sapiens, SK-BR-3, free antifolate drugs, Table 1b, # no full dose-response curve.
[4] abbreviates: Homo sapiens, AU565, free antifolate drugs, Table 1c.
Where [5] appears, read: Homo sapiens, SK-BR-3, free antifolate drugs, Table 1c.
Where [6] appears, read: free antifolate drugs, Table 1c.

Usually IC50 stands for the concentration that inhibits the measured activity by half. As for `Nc1ccc(C(=O)NCCC[C@H](NC(=O)c2ccc(OCc3cnc4nc(N)nc(N)c4n3)cc2)C(=O)O)c(-c2nn[nH]n2)c1` [AFD-001], the IC50 came out at 4.92 nM in experiment [1] (Homo sapiens, Jurkat, Table 1b); 9.18 nM with AU-565 cells (setting [2]); 25 nM in the experiment with SK-BR-3 cells (setting [3]).

As to `Nc1ccc(C(=O)NCCC[C@H](NC(=O)c2ccc(NCc3cnc4nc(N)nc(N)c4n3)c(O)c2)C(=O)O)c(-c2nn[nH]n2)c1` [AFD-002], the IC50 in experiment [1] (Homo sapiens, Jurkat, Table 1b) was found to be 15 nM; in the experiment on AU-565 cells (setting [2]), 14 nM; in the experiment with SK-BR-3 cells (setting [3]), 20 nM.

As for `C#CCN(Cc1cnc2nc(N)nc(N)c2n1)c1ccc(C(=O)N[C@@H](CCCNC(=O)c2ccc(N)cc2-c2nn[nH]n2)C(=O)O)cc1` [AFD-003], the IC50 was determined as 1.4 nM in experiment [1] (Homo sapiens, Jurkat, Table 1b); 0.98 nM with AU-565 cells (setting [2]); 2.09 nM in the experiment with SK-BR-3 cells (setting [3]).

On to `Nc1ccc(C(=O)NCCC[C@H](NC(=O)c2ccc(NCc3cnc4nc(N)nc(N)c4n3)cc2O)C(=O)O)c(-c2nn[nH]n2)c1` [AFD-004], for which the IC50 is 0.68 nM in experiment [1] (Homo sapiens, Jurkat, Table 1c); 0.37 nM with AU-565 cells (setting [4]); 0.67 nM with SK-BR-3 cells (setting [5]).

`Nc1ccc(C(=O)NCCC[C@H](NC(=O)c2ccc(SCc3cnc4nc(N)nc(N)c4n3)cc2)C(=O)O)c(-c2nn[nH]n2)c1` [AFD-005]: the IC50 was 5.6 nM in experiment [1] (Homo sapiens, Jurkat, Table 1c); roughly 8 nM in the experiment with AU-565 cells (setting [4]); roughly 22 nM with SK-BR-3 cells (setting [5]).

In the case of `Nc1ccc(C(=O)NCCC[C@H](NC(=O)c2ccc(NCc3cnc4nc(N)nc(N)c4n3)c(N)c2)C(=O)O)c(-c2nn[nH]n2)c1` [AFD-006], the IC50 in experiment [1] (Homo sapiens, Jurkat, Table 1c) was found to be 5.98 nM; in the experiment on AU-565 cells (setting [4]), 2.8 nM; in the experiment on SK-BR-3 cells (setting [5]), 5.15 nM.

On to `Nc1ccc(C(=O)NCCC[C@H](NC(=O)c2ccc3c(c2)CCCN3Cc2cnc3nc(N)nc(N)c3n2)C(=O)O)c(-c2nn[nH]n2)c1` [AFD-007], for which the IC50 worked out at 2.01 nM in experiment [1] (Homo sapiens, Jurkat, Table 1c); 0.68 nM in the experiment on AU-565 cells (setting [4]); 1.06 nM in the experiment with SK-BR-3 cells (setting [5]).

`Nc1ccc(C(=O)NCCC[C@H](NC(=O)c2ccc3c(c2)CCN3Cc2cnc3nc(N)nc(N)c3n2)C(=O)O)c(-c2nn[nH]n2)c1` [AFD-008]: the IC50 came to 0.87 nM in experiment [1] (Homo sapiens, Jurkat, Table 1c); 0.76 nM with AU-565 cells (setting [4]); 1.5 nM with SK-BR-3 cells (setting [5]).

In the case of `Nc1ccc(C(=O)NCCC[C@H](NC(=O)c2ccc3c(ccn3Cc3cnc4nc(N)nc(N)c4n3)c2)C(=O)O)c(-c2nn[nH]n2)c1` [AFD-009], the IC50 in experiment [1] (Homo sapiens, Jurkat, Table 1c) came to 1.96 nM; with AU-565 cells (setting [4]) it was 1.15 nM; in the experiment on SK-BR-3 cells (setting [5]), 2.82 nM.

Turning to `Nc1ccc(C(=O)NCCC[C@H](NC(=O)c2ccc(NCc3cnc4nc(N)nc(N)c4n3)cc2N)C(=O)O)c(-c2nnn[nH]2)c1` [AFD-010], the IC50 was found to be 2.31 nM in experiment [1] (Homo sapiens, Jurkat, Table 1c); 1.17 nM in the experiment on AU-565 cells (setting [4]); 2.4 nM in the experiment with SK-BR-3 cells (setting [5]).

Turning to `CN(Cc1cnc2nc(N)nc(N)c2n1)c1ccc(C(=O)N[C@@H](CCCNC(=O)c2ccc(N)cc2-c2nn[nH]n2)C(=O)O)s1` [XC5, (S)-5-(4-amino-2-(2H-tetrazol-5-yl)benzamido)-2-(5-(((2,4-diaminopteridin-6-yl)methyl)(methyl)amino)thiophene-2-carboxamido)pentanoic acid], the values for the IC50 (in experiment [1] (Table 1c); in the experiment on AU-565 cells (setting [6]); in the experiment on SK-BR-3 cells (setting [6])) were roughly 30 nM, roughly 28 nM and roughly 100 nM, respectively.

For `CN(Cc1cnc2nc(N)nc(N)c2n1)c1ccc(C(=O)N[C@@H](CCCNC(=O)c2ccc(N)cc2-c2nn[nH]n2)C(=O)O)s1` [XC9, (S)-5-(4-Amino-2-(2H-tetrazol-5-yl)benzamido)-2-(5-(((2,4-diaminopteridin-6-yl)methyl)(methyl)amino)thiophene-2-carboxamido)pentanoic acid], the IC50 in experiment [1] (Table 1c) came to 2.41 nM; with AU-565 cells (setting [6]), 1.95 nM; in the experiment with SK-BR-3 cells (setting [6]) it was 3.77 nM.

For `Nc1ccc(C(=O)NCCC[C@H](NC(=O)c2ccc(NCc3ccc4nc(N)nc(N)c4c3Cl)s2)C(=O)O)c(-c2nnn[nH]2)c1` [XT126, (S)-5-(4-Amino-2-(1H-tetrazol-5-yl)benzamido)-2-(5-(((2,4-diamino-5-chloroquinazolin-6-yl)methyl)amino)thiophene-2-carboxamido)pentanoic acid], the IC50 in experiment [1] (Homo sapiens, Jurkat, Table 1b) is 5.01 nM; in the experiment with AU-565 cells (setting [2]), 2.37 nM; in the experiment on SK-BR-3 cells (setting [3]), 2.91 nM.

As for `Nc1ccc(C(=O)NCCC[C@H](NC(=O)c2ccc(CCc3cnc4nc(N)nc(N)c4n3)cc2)C(=O)O)c(-c2nnn[nH]2)c1` [XT128, (S)-5-(4-Amino-2-(1H-tetrazol-5-yl)benzamido)-2-(4-(2-(2,4-diaminopteridin-6-yl)ethyl)benzamido)pentanoic acid], the IC50 came to 0.61 nM in experiment [1] (Homo sapiens, Jurkat, Table 1b); 0.71 nM in experiment [1] (Homo sapiens, Jurkat, Table 1c); 0.34 nM in the experiment on AU-565 cells (setting [2]); 0.36 nM in the experiment with AU-565 cells (setting [4]); 0.57 nM in the experiment on SK-BR-3 cells (setting [3]); 0.78 nM in the experiment on SK-BR-3 cells (setting [5]).

As for `COc1cc(C(=O)N[C@@H](CCCNC(=O)c2ccc(N)cc2-c2nnn[nH]2)C(=O)O)ccc1NCc1cnc2nc(N)nc(N)c2n1` [XT132, (S)-5-(4-Amino-2-(1H-tetrazol-5-yl)benzamido)-2-(4-(((2,4-diaminopteridin-6-yl)methyl)amino)-3-methoxybenzamido)pentanoic acid], the IC50 in experiment [1] (Homo sapiens, Jurkat, Table 1b) worked out at 1.19 nM; with AU-565 cells (setting [2]), 0.97 nM; in the experiment with SK-BR-3 cells (setting [3]), 2.15 nM.
